Data on 21 molecules can be found in patent US10047081B2, “BACE1 inhibitors” (Hoffmann-La Roche Inc., priority 2015, dated 2018).

The experiment addresses T1, BACE1 (Homo sapiens, UniProt P56817).
T1 construct: endogenous in cells; host or cells: HEK293 APP cells
As to the kind of experiment: Cellular Aβ-lowering assay (Abeta 40 AlphaLISA, HEK293 APP cells). It is filed as cell-based. The note with it: 18-20 hrs incubation, Aβ 40 in culture supernatant, read-out: BACE1 cell act. Aβ40 IC50. The protocol: Cellular Aβ-Lowering Assay:
The Abeta 40 AlphaLISA Assay can be used. The HEK293 APP cells were seeded in 96 well Microtiter plates in cell culture medium (Iscove's, plus 10% (v/v) fetal bovine serum, penicillin/streptomycin) to about 80% confluency and the compounds were added at a 3× concentration in ⅓ volume of culture medium (final DMSO concentration was kept at 1% v/v). After 18-20 hrs incubation at 37° C. and 5% CO2 in a humidified incubator, the culture supernatants were harvested for the determination of Aβ 40 concentrations using Perkin-Elmer Human Amyloid beta 1-40 (high specificity) Kit (Cat#AL275C).
In a Perkin-Elmer White Optiplate-384 (Cat#6007290), 2 ul culture supernatants were combined with 2 μl of a 10× AlphaLISA Anti-hAβAcceptor beads + Biotinylated Antibody Anti-Aβ 1-40 Mix (50 μg/mL/5 nM). After 1 hour room temperature incubation, 16 μl of a 1.25× preparation of Streptavidin (SA) Donor beads (25 μg/mL) were added and incubated for 30 minutes in the Dark. Light Emission at 615 nm was then recorded using EnVision-Alpha Reader. Levels of Aβ 40 in the culture supernatants were calculated as percentage of maximum signal (cells treated with 1% DMSO without inhibitor). The IC50 values were calculated using the Excel XLfit software.
In general terms: Alpha assays give light when donor and acceptor beads are brought close together.

T1 sequence (P56817 46-501): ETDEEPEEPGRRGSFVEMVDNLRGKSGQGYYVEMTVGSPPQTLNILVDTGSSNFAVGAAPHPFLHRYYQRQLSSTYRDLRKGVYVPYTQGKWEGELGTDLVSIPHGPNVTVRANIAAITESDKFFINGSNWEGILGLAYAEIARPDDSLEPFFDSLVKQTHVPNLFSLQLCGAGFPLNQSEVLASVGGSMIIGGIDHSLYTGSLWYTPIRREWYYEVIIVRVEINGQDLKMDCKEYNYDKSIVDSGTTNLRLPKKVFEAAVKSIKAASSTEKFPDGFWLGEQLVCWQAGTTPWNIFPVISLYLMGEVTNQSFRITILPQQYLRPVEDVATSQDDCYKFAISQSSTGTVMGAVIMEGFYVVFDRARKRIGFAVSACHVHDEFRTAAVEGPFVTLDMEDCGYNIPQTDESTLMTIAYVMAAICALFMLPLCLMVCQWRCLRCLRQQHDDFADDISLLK

By IC50 is commonly meant the concentration needed to halve the response being measured. Turning to `CN=[S@@]1(=O)C[C@@](C)(c2cc(-c3cc(-c4cnc(OCC5CC5)cn4)no3)ccc2F)N=C(N)C1(C)C` [Example 22, (1R,3R)-5-amino-3-(5-(3-(5-(cyclopropylmethoxy)pyrazin-2-yl)isoxazol-5-yl)-2-fluorophenyl)-3,6,6-trimethyl-1-(methylimino)-3,6-dihydro-2H-1,4-thiazine 1-oxide], the IC50 amounted to 61 nM.
`CN=[S@@]1(=O)C[C@@](CF)(c2cc(-c3cn(-c4ccc(C#N)cn4)nn3)ccc2F)N=C(N)C1(C)C` [Example 14, 6-(4-(3-((1R,3S)-5-amino-3-(fluoromethyl)-6,6-dimethyl-1-(methylimino)-1-oxido-3,6-dihydro-2H-1,4-thiazin-3-yl)-4-fluorophenyl)-1H-1,2,3-triazol-1-yl)nicotinonitrile 2,2,2-trifluoroacetate]: the half-maximal inhibitory concentration (IC50) amounted to 103 nM.
The value for `CN=[S@]1(=O)C[C@@](CF)(c2cc(-c3cc(-c4ncc(OC)cn4)no3)ccc2F)N=C(N)C1(C)C` [Example 13, (1S,3S)-5-amino-3-(2-fluoro-5-(3-(5-methoxypyrimidin-2-yl)isoxazol-5-yl)phenyl)-3-(fluoromethyl)-6,6-dimethyl-1-(methylimino)-3,6-dihydro-2H-1,4-thiazine 1-oxide] was 106 nM; that for `CN=[S@]1(=O)C[C@@](CF)(c2cc(-c3cc(-c4cnc(OC)cn4)no3)ccc2F)N=C(N)C1(C)C` [Example 2, (1S,3S)-5-amino-3-(2-fluoro-5-(3-(5-methoxypyrazin-2-yl)isoxazol-5-yl)phenyl)-3-(fluoromethyl)-6,6-dimethyl-1-(methylimino)-3,6-dihydro-2H-1,4-thiazine 1-oxide 2,2,2-trifluoroacetate] was 141 nM.
On to `CN=[S@@]1(=O)C[C@@](C)(c2cc(-c3cc(-c4ncc(C#N)cn4)no3)ccc2F)N=C(N)C1(C)C` [Example 8, 2-(5-(3-((1R,3R)-5-amino-3,6,6-trimethyl-1-(methylimino)-1-oxido-3,6-dihydro-2H-1,4-thiazin-3-yl)-4-fluorophenyl)isoxazol-3-yl)pyrimidine-5-carbonitrile 2,2,2-trifluoroacetate], for which the IC50 was determined as 22 nM.
For the molecule `CC1(C)C(N)=N[C@](C)(c2cc(-c3cc(-c4ncc(Cl)cn4)no3)ccc2F)C[S@@]1(=O)=NCC(F)(F)F` [Example 38, (1S,3R)-5-amino-3-(5-(3-(5-chloropyrimidin-2-yl)isoxazol-5-yl)-2-fluorophenyl)-3,6,6-trimethyl-1-((2,2,2-trifluoroethyl)imino)-3,6-dihydro-2H-1,4-thiazine 1-oxide 2,2,2-trifluoroacetate], the IC50 is 13 nM.
As to `CN=[S@@]1(=O)C[C@@](C)(c2cc(-c3cc(-c4ncc(OC)cn4)no3)ccc2F)N=C(N)C1(C)C` [Example 20, (1R,3R)-5-amino-3-(2-fluoro-5-(3-(5-methoxypyrimidin-2-yl)isoxazol-5-yl)phenyl)-3,6,6-trimethyl-1-(methylimino)-3,6-dihydro-2H-1,4-thiazine 1-oxide], the IC50 worked out at 3 nM.
For `CC1(C)C(N)=N[C@](C)(c2cc(-c3cc(-c4ncc(Cl)cn4)no3)ccc2F)C[S@@]1(=O)=NC1CC1` [Example 36, (1S,3R)-5-amino-3-(5-(3-(5-chloropyrimidin-2-yl)isoxazol-5-yl)-2-fluorophenyl)-1-(cyclopropylimino)-3,6,6-trimethyl-3,6-dihydro-2H-1,4-thiazine 1-oxide 2,2,2-trifluoroacetate] the value was 7 nM; for `CN=[S@@]1(=O)C[C@@](CF)(c2cc(-c3cn(-c4ccc(Cl)cn4)nn3)ccc2F)N=C(N)C1(C)C` [Example 16, (1R,3S)-5-amino-3-(5-(1-(5-chloropyridin-2-yl)-1H-1,2,3-triazol-4-yl)-2-fluorophenyl)-3-(fluoromethyl)-6,6-dimethyl-1-(methylimino)-3,6-dihydro-2H-1,4-thiazine 1-oxide 2,2,2-trifluoroacetate], 156 nM.
In the case of `CN=[S@@]1(=O)C[C@@](CF)(c2cc(-c3cc(-c4ncc(Cl)cn4)no3)ccc2F)N=C(N)C1(C)C` [Example 3, (1R,3S)-5-amino-3-(5-(3-(5-chloropyrimidin-2-yl)isoxazol-5-yl)-2-fluorophenyl)-3-(fluoromethyl)-6,6-dimethyl-1-(methylimino)-3,6-dihydro-2H-1,4-thiazine 1-oxide 2,2,2-trifluoroacetate], the half-inhibitory concentration (IC50) was determined as 89 nM.
With `CN=[S@]1(=O)C[C@@](C)(c2cc(-c3cc(-c4ncc(OCC(F)F)cn4)no3)ccc2F)N=C(N)C1(C)C` [Example 19, (1S,3R)-3-[5-[3-[5-(2,2-difluoroethoxy)pyrimidin-2-yl]isoxazol-5-yl]-2-fluoro-phenyl]-3,6,6-trimethyl-1-methylimino-1-oxo-2H-1,4-thiazin-5-amine], the IC50 was determined as 27 nM.
`CN=[S@@]1(=O)C[C@@](C)(c2cc(-c3cc(-c4ncc(OC)cn4)no3)ccc2F)N=C(N)C12CCCC2` [Example 29, (6R,8R)-10-amino-8-(2-fluoro-5-(3-(5-methoxypyrimidin-2-yl)isoxazol-5-yl)phenyl)-8-methyl-6-(methylimino)-6-thia-9-azaspiro[4.5]dec-9-ene 6-oxide 2,2,2-trifluoroacetate]: the IC50 is 20 nM.
Consider `CN=[S@@]1(=O)C[C@@](C)(c2cc(-c3cc(-c4ncc(OCC(F)F)cn4)no3)ccc2F)N=C(N)C1(C)C` [Example 18, (1R,3R)-3-[5-[3-[5-(2,2-difluoroethoxy)pyrimidin-2-yl]isoxazol-5-yl]-2-fluoro-phenyl]-3,6,6-trimethyl-1-methylimino-1-oxo-2H-1,4-thiazin-5-amine], for which the IC50 worked out at 13 nM.
As for `CN=[S@@]1(=O)C[C@@](C)(c2cc(-c3cn(-c4ccc(Cl)cn4)nn3)ccc2F)N=C(N)C1(C)C` [Example 9, (1R,3R)-5-amino-3-(5-(1-(5-chloropyridin-2-yl)-1H-1,2,3-triazol-4-yl)-2-fluorophenyl)-3,6,6-trimethyl-1-(methylimino)-3,6-dihydro-2H-1,4-thiazine 1-oxide 2,2,2-trifluoroacetate], the IC50 worked out at 17 nM.
The value for `CN=[S@@]1(=O)C[C@@](CF)(c2cc(-c3cc(-c4ncc(OC)cn4)no3)ccc2F)N=C(N)C1(C)C` [Example 17, (1R,3S)-3-[2-fluoro-5-[3-(5-methoxypyrimidin-2-yl)isoxazol-5-yl]phenyl]-3-(fluoromethyl)-6,6-dimethyl-1-methylimino-1-oxo-2H-1,4-thiazin-5-amine] was 119 nM.
As for `CN=[S@@]1(=O)C[C@@](C)(c2cc(-c3cc(-c4cnc(O)cn4)no3)ccc2F)N=C(N)C1(C)C` [Example 23, (1R,3R)-5-amino-3-(2-fluoro-5-(3-(5-hydroxypyrazin-2-yl)isoxazol-5-yl)phenyl)-3,6,6-trimethyl-1-(methylimino)-3,6-dihydro-2H-1,4-thiazine 1-oxide], the IC50 is above 1000 nM.
For `[2H]C([2H])([2H])N=[S@@]1(=O)C[C@@](C)(c2cc(-c3cc(-c4ncc(CC)cn4)no3)ccc2F)N=C(N)C1(C)C` [Example 26, (1R,3R)-3-[5-[3-(5-ethylpyrimidin-2-yl)isoxazol-5-yl]-2-fluoro-phenyl]-3,6,6-trimethyl-1-oxo-1-(trideuteriomethylimino)-2H-1,4-thiazin-5-amine 2,2,2-trifluoroacetate], the IC50 is 37 nM.
The value for `COc1cnc(-c2cc(-c3ccc(F)c([C@]4(C)C[S@](=O)(=NCC(F)(F)F)C(C)(C)C(N)=N4)c3)on2)cn1` [Example 39, (1R,3R)-5-amino-3-(2-fluoro-5-(3-(5-methoxypyrazin-2-yl)isoxazol-5-yl)phenyl)-3,6,6-trimethyl-1-((2,2,2-trifluoroethyl)imino)-3,6-dihydro-2H-1,4-thiazine 1-oxide 2,2,2-trifluoroacetate] was 232 nM; that for `CN=[S@@]1(=O)C[C@@](C)(c2cc(-c3cc(-c4cnc(OCC(F)F)cn4)no3)ccc2F)N=C(N)C12CCCC2` [Example 30, (6R,8R)-10-amino-8-(5-(3-(5-(2,2-difluoroethoxy)pyrazin-2-yl)isoxazol-5-yl)-2-fluorophenyl)-8-methyl-6-(methylimino)-6-thia-9-azaspiro[4.5]dec-9-ene 6-oxide] was 104 nM.
For the molecule `CN=[S@]1(=O)C[C@@](C)(c2cc(-c3cc(-c4ncc(Cl)cn4)no3)ccc2F)N=C(N)C1(C)C` [Example 12, (1S,3R)-5-amino-3-(5-(3-(5-chloropyrimidin-2-yl)isoxazol-5-yl)-2-fluorophenyl)-3,6,6-trimethyl-1-(methylimino)-3,6-dihydro-2H-1,4-thiazine 1-oxide 2,2,2-trifluoroacetate], the IC50 was 19 nM.
As for `COc1cnc(-c2cc(-c3ccc(F)c([C@]4(C)C[S@@](=O)(=NCC(F)(F)F)C(C)(C)C(N)=N4)c3)on2)cn1` [Example 37, (1S,3R)-5-amino-3-(2-fluoro-5-(3-(5-methoxypyrazin-2-yl)isoxazol-5-yl)phenyl)-3,6,6-trimethyl-1-((2,2,2-trifluoroethyl)imino)-3,6-dihydro-2H-1,4-thiazine 1-oxide 2,2,2-trifluoroacetate], the half-inhibitory concentration (IC50) came out at 6 nM.
